Here are results for 23 molecules from ChEMBL document CHEMBL4373692, “Structure-Based Development of (1-(3'-Mercaptopropanamido)methyl)boronic Acid Derived Broad-Spectrum, Dual-Action Inhibitors of Metallo- and Serine-β-lactamases” (J Med Chem, 2019).

As a reminder, the Ki is the dissociation constant of the complex between target and ligand, obtained from inhibition or displacement. A higher Ki goes with weaker binding.

Data set [1] in a line: Inhibition of bacterial N-terminal His-tagged TEV protease site linked VIM-2 (27 to 266 amino acids) expressed in Escherichia coli Transetta (DE3) preincubated for 10 mins followed by FC5 fluorescent substrate addition by fluorescence assay. Details: species or system Bacteria; call rule not given here.
A short description of data set [2]: Inhibition of bacterial N-terminal His-tagged TEV protease site linked NDM-1 (1 to 270 amino acids) expressed in Escherichia coli Transetta (DE3) preincubated for 10 mins followed by FC5 fluorescent substrate addition by fluorescence assay. Details: species or system Bacteria.
The nature of data set [3]: Inhibition of bacterial N-terminal His-tagged TEV protease site linked SFH1 (3 to 234 amino acids) expressed in Escherichia coli Transetta (DE3) preincubated for 10 mins followed by FC5 fluorescent substrate addition by fluorescence assay. Further details: species or system Bacteria.
Data set [4] in a line: Inhibition of bacterial N-terminal His-tagged TEV protease site linked GOB-18 (1 to 290 amino acids) expressed in Escherichia coli Transetta (DE3) preincubated for 10 mins followed by FC5 fluorescent substrate addition by fluorescence assay. Details: species or system Bacteria.
Data set [5] is described as follows: Inhibition of bacterial N-terminal His-tagged TEV protease site linked KPC-2 (29 to 289 amino acids) expressed in Escherichia coli Transetta (DE3) preincubated for 10 mins followed by FC5 fluorescent substrate addition by fluorescence assay. Further details: species or system Bacteria.
A further data set deals with Beta-lactamase TEM (Bacteria, UniProt P62593). The data set can be described thus: Inhibition of bacterial N-terminal His-tagged TEV protease site linked TEM-1 (24 to 286 amino acids) expressed in Escherichia coli Transetta (DE3) preincubated for 10 mins followed by FC5 fluorescent substrate addition by fluorescence assay.
Beta-lactamase TEM, sequence (P62593 whole entry, the tested form may be a part): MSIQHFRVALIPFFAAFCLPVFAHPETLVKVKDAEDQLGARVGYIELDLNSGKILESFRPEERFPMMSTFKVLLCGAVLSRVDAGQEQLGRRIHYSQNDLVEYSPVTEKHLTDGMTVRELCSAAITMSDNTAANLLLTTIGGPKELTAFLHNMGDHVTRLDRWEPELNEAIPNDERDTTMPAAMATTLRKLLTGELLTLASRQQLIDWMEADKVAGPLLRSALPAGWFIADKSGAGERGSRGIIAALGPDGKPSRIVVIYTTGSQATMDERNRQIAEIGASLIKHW
The nature of data set [6]: Inhibition of bacterial N-terminal His-tagged TEV protease site linked AmpC (20 to 377 amino acids) expressed in Escherichia coli Transetta (DE3) preincubated for 10 mins followed by FC5 fluorescent substrate addition by fluorescence assay. Details: species or system Bacteria.
Data set [7] can be described thus: Inhibition of bacterial N-terminal His-tagged TEV protease site linked OXA-48 (1 to 265 amino acids) expressed in Escherichia coli Transetta (DE3) preincubated for 10 mins followed by FC5 fluorescent substrate addition by fluorescence assay. Further details: species or system Bacteria.
The target of data set [8] is Angiotensin-converting enzyme 2 (Homo sapiens, UniProt Q9BYF1). The experiment in a line: Inhibition of human C-terminal His/FLAG-tagged ACE-2 expressed in HEK293 cells at 100 uM preincubated for 10 mins followed by Mca-Ala-Pro-Lys(Dnp)-OH substrate addition by fluorescence assay relative to control. Type of data set: cell-based. The settings on record: hek293, 100 µM.
Angiotensin-converting enzyme 2, sequence (Q9BYF1 whole entry): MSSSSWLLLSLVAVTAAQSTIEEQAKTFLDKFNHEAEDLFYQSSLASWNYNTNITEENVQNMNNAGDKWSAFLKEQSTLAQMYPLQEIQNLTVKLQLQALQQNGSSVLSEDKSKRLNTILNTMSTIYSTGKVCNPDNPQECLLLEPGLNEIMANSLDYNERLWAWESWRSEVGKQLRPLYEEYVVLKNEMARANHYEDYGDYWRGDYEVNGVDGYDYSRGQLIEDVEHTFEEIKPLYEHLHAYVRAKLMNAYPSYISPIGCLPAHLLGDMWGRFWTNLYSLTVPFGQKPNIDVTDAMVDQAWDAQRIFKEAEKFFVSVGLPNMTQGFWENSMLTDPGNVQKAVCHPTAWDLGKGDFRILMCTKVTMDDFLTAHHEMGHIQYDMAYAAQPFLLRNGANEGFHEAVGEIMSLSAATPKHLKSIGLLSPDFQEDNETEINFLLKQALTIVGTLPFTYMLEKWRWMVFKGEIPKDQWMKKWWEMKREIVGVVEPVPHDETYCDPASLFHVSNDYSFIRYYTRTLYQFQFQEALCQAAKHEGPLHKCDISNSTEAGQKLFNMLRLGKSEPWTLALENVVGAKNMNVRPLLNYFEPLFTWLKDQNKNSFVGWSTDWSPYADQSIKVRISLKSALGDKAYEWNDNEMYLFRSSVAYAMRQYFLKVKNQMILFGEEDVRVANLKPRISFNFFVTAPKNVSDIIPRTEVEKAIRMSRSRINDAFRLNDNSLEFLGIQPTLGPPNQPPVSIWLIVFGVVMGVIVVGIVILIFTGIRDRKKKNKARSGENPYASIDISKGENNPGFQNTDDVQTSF

Take `C[C@H](CS)C(=O)N[C@@H](B(O)O)c1ccc(F)cc1`: the Ki came out at 0.65 µM in data set [1]; 21.1 µM in data set [2]; 0.28 µM in data set [3]; 1.02 µM in data set [4]; 7.08 µM in [5]; 67.9 µM on Beta-lactamase TEM. The figures for the Ki in data set [6] and in data set [7] were 1.57 µM and over 300 µM, respectively. Also, the “inhibition (INH)” value in data set [8] was “Not Active”.
Regarding `O=C(N[C@@H](Cc1ccccc1)B(O)O)[C@@H](CS)N1C(=O)c2ccccc2C1=O`, the Ki is 2.41 µM in [1]; 57.7 µM in data set [2]; 7.76 µM in data set [3]; 32.1 µM in data set [4]; 8.65 µM in [5]; 32.8 µM on Beta-lactamase TEM. The Ki in data set [6] is 27.4 µM; in data set [7] it was over 300 µM.
Take `O=C(CS)N[C@@H](Cc1ccccc1)B(O)O`: the inhibition constant (Ki) in data set [1] came to 3.34 µM; in [2] it was 165 µM; in [3], 0.48 µM; in [4] it was 1.69 µM; in [5], 12.4 µM; on Beta-lactamase TEM, 18.7 µM. The values for the Ki in data set [6] and in data set [7] were 1.56 µM and 50.5 µM, respectively.
For `C[C@H](CS)C(=O)N[C@@H](Cc1ccc(F)cc1)B(O)O`, the Ki was found to be 0.26 µM in data set [1]; 22.8 µM in data set [2]; 0.19 µM in [3]; 1.01 µM in data set [4]; 4.82 µM in data set [5]; 4.16 µM at Beta-lactamase TEM. The Ki in data set [6] worked out at 0.77 µM; in data set [7], 85.8 µM. Further, the “inhibition (INH)” value in [8] was “Not Active”.
As for `C[C@H](CS)C(=O)N[C@@H](B(O)O)c1ccc2ccccc2c1`, the Ki in data set [1] turned out to be 7.54 µM; in data set [2] it was 101 µM; in data set [3] it was 9.75 µM; in data set [4], 23.5 µM; in [5] it was 12 µM; at Beta-lactamase TEM, 216 µM. The Ki in data set [6] is 25.3 µM; in data set [7], over 300 µM. Also, the “inhibition (INH)” value in data set [8] is “Not Active”.
For the molecule `O=C(CCS)N[C@H](Cc1coc2ccccc12)B(O)O`, the Ki in [1] was determined as 0.33 µM; in data set [2], 16.5 µM; in [3], 0.63 µM; in data set [4], 2.5 µM; in data set [5], 5.56 µM; at Beta-lactamase TEM it was 35.7 µM. The values for the Ki in data set [6] and in [7] were 4.47 µM and over 300 µM, respectively. In data set [8], the “inhibition (INH)” value is “Not Active”.
Take `CC(C)C[C@H](NC(=O)[C@H](C)CS)B(O)O`: the Ki in [1] was determined as 0.85 µM; in data set [2], 22.8 µM; in [3] it was 6.11 µM; in data set [4], 11.1 µM; in [5] it was 36.1 µM; at Beta-lactamase TEM it was 171 µM. Moreover, the Ki in data set [6] is 17.7 µM; in [7], over 300 µM. The “inhibition (INH)” value in data set [8] is “Not Active”.
`CC(C)C[C@@H](NC(=O)[C@H](C)CS)B(O)O`: the Ki is 1.13 µM in data set [1]; 37.6 µM in data set [2]; 1.91 µM in [3]; 4.25 µM in data set [4]; 18.4 µM in data set [5]; 70.5 µM on Beta-lactamase TEM. Moreover, the Ki in data set [6] is 3.07 µM; in data set [7] it was over 300 µM. The “inhibition (INH)” value in data set [8] was “Not Active”.
`Cc1ccc([C@@H](NC(=O)[C@H](C)CS)B(O)O)cc1`: the Ki was 1.28 µM in data set [1]; 15.9 µM in data set [2]; 0.35 µM in data set [3]; 2.75 µM in data set [4]; 11.5 µM in data set [5]; 13.5 µM on Beta-lactamase TEM. The Ki in data set [6] was 2.03 µM; in [7] it was over 300 µM. The “inhibition (INH)” value in data set [8] is listed as “Not Active”.
For the molecule `C[C@H](CS)C(=O)N[C@H](B(O)O)c1ccc2ccccc2c1`, the Ki was determined as 0.72 µM in [1]; 13.1 µM in data set [2]; 11.1 µM in data set [3]; 17.9 µM in data set [4]; 0.78 µM in data set [5]; 2.03 µM on Beta-lactamase TEM. In addition, the Ki was 20.2 µM in data set [6] and over 300 µM in data set [7]. Moreover, the “inhibition (INH)” value in data set [8] is reported as “Not Active”.
Take `CCCC(=O)NCB(O)O`: the inhibition constant (Ki) in data set [1] is over 300 µM; in data set [2], over 300 µM; in data set [3] it was 5.78 µM; in [4] it was 12.1 µM; in data set [5], 38.1 µM; on Beta-lactamase TEM it was 100 µM. Moreover, the figures for the Ki in data set [6] and in data set [7] were 58.5 µM and 102 µM, respectively.
Consider `Cc1ccc([C@H](NC(=O)[C@H](C)CS)B(O)O)cc1`, for which the Ki in data set [1] turned out to be 3.28 µM; in data set [2], 16.7 µM; in data set [3], 0.51 µM; in data set [4], 2.78 µM; in [5], 4.35 µM; at Beta-lactamase TEM, 2.41 µM. Further, the Ki in data set [6] was 1.99 µM; in data set [7], over 300 µM. Moreover, the “inhibition (INH)” value in data set [8] is recorded as “Not Active”.
On to `COc1ccc(C[C@@H](NC(=O)[C@H](C)CS)B(O)O)cc1`, for which the Ki in data set [1] amounted to 0.56 µM; in data set [2] it was 7.22 µM; in [3], 0.74 µM; in data set [4] it was 2.5 µM; in data set [5], 11.1 µM; at Beta-lactamase TEM, 80.7 µM. In addition, the Ki is 1.18 µM in data set [6] and over 300 µM in [7]. Further, in data set [8], the “inhibition (INH)” value was “Not Active”.
As to `CCC(=O)NCB(O)O`, the Ki is over 300 µM in data set [1]; over 300 µM in data set [2]; over 300 µM in [3]; over 300 µM in data set [4]; 86.1 µM in data set [5]; 36.3 µM at Beta-lactamase TEM. In addition, the Ki is 291 µM in [6] and over 300 µM in data set [7].
In the case of `CC(C)[C@H](NC(=O)[C@H](C)CS)B(O)O`, the Ki in data set [1] was determined as 0.51 µM; in [2], 36.8 µM; in [3] it was 9.14 µM; in data set [4], 11.5 µM; in data set [5], 5.35 µM; on Beta-lactamase TEM it was 166 µM. The Ki was 11.5 µM in data set [6] and over 300 µM in [7]. The “inhibition (INH)” value in [8] is listed as “Not Active”.
As for `CCCC(=O)N[C@@H](Cc1ccccc1)B(O)O`, the Ki in data set [1] was over 300 µM; in data set [2], over 300 µM; in [3], 9.21 µM; in data set [4], 23.5 µM; in data set [5] it was 107 µM; on Beta-lactamase TEM, over 300 µM. Further, the Ki is 33.4 µM in data set [6] and over 300 µM in data set [7].
Take `C[C@H](CS)C(=O)NCC(=O)O`: the Ki in data set [1] was 1.68 µM; in [2] it was 22.5 µM; in [3] it was over 300 µM; in data set [4] it was over 300 µM; in data set [5], 140 µM; at Beta-lactamase TEM, over 300 µM. Besides, the Ki in data set [6] and in [7] was over 300 µM in each case.
As to `CC(C)[C@@H](NC(=O)[C@H](C)CS)B(O)O`, the Ki is 0.7 µM in [1]; 25.6 µM in data set [2]; 110 µM in data set [3]; 58 µM in data set [4]; 158 µM in data set [5]; over 300 µM on Beta-lactamase TEM. The Ki in [6] and in data set [7] was over 300 µM each time. In addition, the “inhibition (INH)” value in data set [8] was “Not Active”.
As for `O=C(CCS)N[C@@H](Cc1ccccc1)B(O)O`, the Ki in [1] turned out to be 4.04 µM; in data set [2], 191 µM; in data set [3], 0.89 µM; in data set [4] it was 1.64 µM; in data set [5], 19.4 µM; on Beta-lactamase TEM, 15.8 µM. Further, the values for the Ki in data set [6] and in data set [7] were 1.14 µM and 247 µM, respectively.
For the molecule `C[C@H](CS)C(=O)N[C@H](Cc1ccc(F)cc1)B(O)O`, the Ki was 0.48 µM in [1]; 17.4 µM in data set [2]; 0.77 µM in data set [3]; 6.33 µM in data set [4]; 14.6 µM in data set [5]; 179 µM at Beta-lactamase TEM. For the same molecule, the Ki in data set [6] is 1.98 µM; in [7], over 300 µM. In addition, the “inhibition (INH)” value in data set [8] is “Not Active”.
With `C[C@H](CS)C(=O)N[C@H](B(O)O)c1ccc(F)cc1`, the Ki in data set [1] was 0.41 µM; in data set [2], 14.7 µM; in data set [3], 0.33 µM; in data set [4], 0.33 µM; in [5], 2.02 µM; on Beta-lactamase TEM, 14.2 µM. The Ki in data set [6] is 0.64 µM; in [7], over 300 µM. Moreover, the “inhibition (INH)” value in [8] is on record as “Not Active”.
Regarding `CCC(=O)N[C@@H](Cc1ccccc1)B(O)O`, the Ki in [1] is over 300 µM; in data set [2], over 300 µM; in [3] it was 152 µM; in data set [4], 252 µM; in data set [5], over 300 µM; at Beta-lactamase TEM it was over 300 µM. Besides, the values for the Ki in data set [6] and in [7] were 158 µM and over 300 µM, respectively.
Regarding `O=C(CS)N[C@H](Cc1coc2ccccc12)B(O)O`, the Ki in [1] was 42.8 µM; in data set [2] it was 10.2 µM; in data set [3], 0.12 µM; in data set [4], 1.67 µM; in [5] it was 0.5 µM; at Beta-lactamase TEM, 6.84 µM. The Ki stood at 0.97 µM in data set [6] and 217 µM in [7]. Moreover, the “inhibition (INH)” value in data set [8] is reported as “Not Active”.
